In the NIST ThermoML archive (doi:10.1016/j.fluid.2005.09.019):
Numbers after ± are expanded uncertainties.

Experiments:
[1] = Crystal; visual observation
[2] = wn = mass fraction of the nth substance listed; settings: Fluid (supercritical or subcritical phases), Other PVT measurement

O=C(OCCC(F)(F)C(F)(F)C(F)(F)C(F)(F)C(F)(F)C(F)(F)F)c1cccc(-c2cccc(C(=O)OCCC(F)(F)C(F)(F)C(F)(F)C(F)(F)C(F)(F)C(F)(F)F)c2)c1
Settings	Normal melting temperature [°C]
[1]	72.00 ± 1

O=C(OCCC(F)(F)C(F)(F)C(F)(F)C(F)(F)C(F)(F)C(F)(F)F)c1cccc(-c2cccc(C(=O)OCCC(F)(F)C(F)(F)C(F)(F)C(F)(F)C(F)(F)C(F)(F)F)c2)c1 + O=C=O
[2]
Settings	mass density [kg/m3]
294.55 K, 5980 kPa, w1 = 0.135	744 ± 22
295.05 K, 6070 kPa, w1 = 0.116	768 ± 23
295.15 K, 6170 kPa, w1 = 0.016	745 ± 22
295.55 K, 6240 kPa, w1 = 0.279	976 ± 29
295.95 K, 6280 kPa, w1 = 0.405	1054 ± 32
296.45 K, 6310 kPa, w1 = 0.334	950 ± 29
296.55 K, 6380 kPa, w1 = 0.206	904 ± 27
298.35 K, 6620 kPa, w1 = 0.206	900 ± 27
298.75 K, 6590 kPa, w1 = 0.116	782 ± 23
299.15 K, 6730 kPa, w1 = 0.405	1049 ± 31
299.75 K, 6610 kPa, w1 = 0.273	933 ± 28
299.75 K, 6900 kPa, w1 = 0.135	737 ± 22
299.95 K, 6860 kPa, w1 = 0.279	962 ± 29
300.55 K, 6930 kPa, w1 = 0.334	967 ± 29
301.15 K, 6900 kPa, w1 = 0.273	932 ± 28
301.95 K, 7070 kPa, w1 = 0.279	954 ± 29
302.75 K, 7520 kPa, w1 = 0.016	689 ± 21
303.15 K, 7240 kPa, w1 = 0.334	957 ± 29
303.35 K, 7310 kPa, w1 = 0.116	763 ± 23
303.35 K, 7340 kPa, w1 = 0.135	723 ± 22
303.35 K, 7550 kPa, w1 = 0.206	880 ± 26
303.45 K, 7240 kPa, w1 = 0.273	887 ± 27
304.75 K, 8270 kPa, w1 = 0.279	952 ± 29
305.35 K, 7520 kPa, w1 = 0.273	827 ± 25
305.85 K, 7660 kPa, w1 = 0.273	782 ± 24
305.95 K, 7620 kPa, w1 = 0.016	654 ± 20
312.75 K, 10240 kPa, w1 = 0.116	752 ± 23
318.45 K, 12270 kPa, w1 = 0.135	711 ± 22
320.65 K, 13200 kPa, w1 = 0.279	925 ± 28
321.05 K, 12890 kPa, w1 = 0.334	931 ± 28
321.05 K, 13270 kPa, w1 = 0.206	856 ± 26
322.65 K, 11510 kPa, w1 = 0.016	622 ± 19
327.85 K, 14660 kPa, w1 = 0.405	1001 ± 30
330.05 K, 15000 kPa, w1 = 0.405	999 ± 30
332.45 K, 15960 kPa, w1 = 0.135	688 ± 22
338.55 K, 17380 kPa, w1 = 0.116	719 ± 26
342.75 K, 18790 kPa, w1 = 0.206	816 ± 24
344.35 K, 18760 kPa, w1 = 0.334	898 ± 27
345.35 K, 18820 kPa, w1 = 0.405	969 ± 29
346.15 K, 19720 kPa, w1 = 0.279	879 ± 26
347.75 K, 16790 kPa, w1 = 0.016	585 ± 18
348.55 K, 19620 kPa, w1 = 0.135	665 ± 26
360.65 K, 22690 kPa, w1 = 0.405	949 ± 28
362.85 K, 23000 kPa, w1 = 0.206	777 ± 23
363.55 K, 22380 kPa, w1 = 0.116	673 ± 22
363.65 K, 23000 kPa, w1 = 0.334	862 ± 26
363.75 K, 19380 kPa, w1 = 0.016	554 ± 24
368.05 K, 24130 kPa, w1 = 0.279	835 ± 25
369.65 K, 24030 kPa, w1 = 0.135	639 ± 21

O=C(OCCC(F)(F)C(F)(F)C(F)(F)C(F)(F)C(F)(F)C(F)(F)F)c1ccccc1-c1ccccc1C(=O)OCCC(F)(F)C(F)(F)C(F)(F)C(F)(F)C(F)(F)C(F)(F)F + O=C=O
[2]
Settings	mass density [kg/m3]
294.65 K, 5000 kPa, w1 = 0.652	892 ± 27
294.65 K, 5620 kPa, w1 = 0.36	681 ± 24
294.85 K, 5930 kPa, w1 = 0.063	606 ± 19
295.15 K, 6040 kPa, w1 = 0.13	668 ± 20
295.55 K, 6170 kPa, w1 = 0.021	663 ± 20
297.35 K, 6380 kPa, w1 = 0.13	688 ± 21
297.45 K, 6110 kPa, w1 = 0.36	690 ± 23
297.75 K, 5170 kPa, w1 = 0.652	896 ± 27
298.65 K, 5930 kPa, w1 = 0.515	968 ± 29
298.75 K, 6310 kPa, w1 = 0.288	798 ± 26
298.85 K, 6590 kPa, w1 = 0.063	640 ± 20
299.15 K, 6690 kPa, w1 = 0.021	643 ± 19
303.05 K, 7110 kPa, w1 = 0.13	662 ± 20
303.35 K, 7210 kPa, w1 = 0.063	617 ± 19
303.35 K, 7380 kPa, w1 = 0.021	601 ± 18
304.65 K, 7210 kPa, w1 = 0.288	781 ± 23
307.95 K, 7210 kPa, w1 = 0.515	949 ± 28
309.35 K, 8200 kPa, w1 = 0.021	558 ± 17
309.75 K, 7970 kPa, w1 = 0.36	739 ± 22
309.95 K, 8030 kPa, w1 = 0.063	579 ± 17
309.95 K, 8070 kPa, w1 = 0.288	771 ± 22
311.95 K, 8580 kPa, w1 = 0.13	630 ± 19
314.35 K, 7140 kPa, w1 = 0.652	966 ± 29
317.85 K, 8860 kPa, w1 = 0.515	929 ± 28
318.85 K, 9510 kPa, w1 = 0.288	750 ± 23
320.05 K, 10210 kPa, w1 = 0.36	724 ± 22
321.05 K, 10870 kPa, w1 = 0.202	594 ± 18
323.85 K, 11580 kPa, w1 = 0.13	613 ± 18
327.05 K, 11550 kPa, w1 = 0.021	518 ± 16
330.25 K, 13000 kPa, w1 = 0.063	561 ± 17
331.85 K, 12530 kPa, w1 = 0.36	712 ± 21
332.75 K, 12890 kPa, w1 = 0.288	728 ± 22
333.95 K, 9800 kPa, w1 = 0.652	940 ± 28
334.55 K, 12170 kPa, w1 = 0.515	899 ± 27
336.45 K, 14580 kPa, w1 = 0.202	578 ± 17
341.45 K, 15270 kPa, w1 = 0.36	701 ± 21
346.35 K, 16510 kPa, w1 = 0.13	581 ± 17
349.25 K, 15310 kPa, w1 = 0.021	490 ± 15
349.95 K, 17000 kPa, w1 = 0.063	536 ± 16
350.65 K, 15520 kPa, w1 = 0.515	870 ± 26
352.75 K, 17100 kPa, w1 = 0.288	697 ± 21
353.75 K, 12800 kPa, w1 = 0.652	918 ± 28
354.55 K, 18170 kPa, w1 = 0.202	565 ± 17
354.95 K, 17650 kPa, w1 = 0.36	681 ± 20
367.35 K, 20380 kPa, w1 = 0.13	553 ± 17
368.25 K, 17510 kPa, w1 = 0.021	458 ± 14
368.45 K, 18830 kPa, w1 = 0.515	840 ± 25
369.05 K, 20170 kPa, w1 = 0.288	675 ± 27
369.25 K, 19820 kPa, w1 = 0.36	659 ± 20
370.45 K, 15210 kPa, w1 = 0.652	900 ± 27
371.85 K, 20310 kPa, w1 = 0.063	503 ± 15
371.85 K, 21240 kPa, w1 = 0.202	542 ± 16
